Reference: publication PMC12508057, “Discovery of ETI41 and ETI60: novel selective endosomal Toll-like receptor inhibitors for the treatment of autoimmune diseases” (Experimental & Molecular Medicine, 2025)

What was measured:
hTLR9 = target: T1, hTLR9 (Homo sapiens, UniProt Q9NR96); experiment: TLR9 inhibition, ODN2395-induced hTNFα in Daudi; assay type: cell-based
T1 construct: human B lymphoblasts (Daudi cells); endogenous in cells; host or cells: Daudi
Method: RAW 264.7 and differentiated THP-1 cells were seeded into 96-well plates at 2 × 10^4 cells per well, while Daudi cells were seeded at 5 × 10^4 cells per well. After stabilization for 30 min, cells were stimulated with specific TLR agonists for 4 or 24 h. Supernatants were diluted and transferred to precoated ELISA plates to measure TNF-α secretion using kits from Invitrogen. Optical absorbance was measured using a BioTek Synergy HTX multimode microplate reader, and data were interpolated using BioTek Gen5 software.
One-tailed paired Student’s t-tests were performed using Microsoft Excel (Microsoft). Semi-logarithmic conversions and nonregression curve analyses for calculating 50% lethal concentration (LC50) and 50% inhibitory concentration (IC50) values were conducted using GraphPad Prism 7.0 (GraphPad). The therapeutic index was calculated as […]. Animal experimental results are expressed as mean ± standard deviation and analyzed using SPSS v.20 (IBM SPSS Statistics). Homogeneity of variance was assessed using Levene’s test. […]

[1] = tested on: TLR7- and TLR9-dependent downstream signaling; experiment: Western blot of TLR7- and TLR9-dependent downstream signaling in RAW 264.7; assay type: cell-based, mouse; details: RAW 264.7, 5 or 10 μM
Method: RAW 264.7 cells were seeded into 60-mm dishes at 1 × 10^6 cells per dish. After 30 min of treatment with ETI41 or ETI60, the cells were stimulated with 2 μM IMQ (a TLR7 agonist) or 1 μM ODN2395 (a TLR9 agonist). Lysates were prepared using a Mammalian Protein Extraction Kit (Thermo Fisher Scientific) with protease and phosphatase inhibitors. Nuclear proteins were extracted using an NE-PER Nuclear and Cytoplasmic Extraction Kit (Thermo Fisher Scientific). Proteins were quantified using a bicinchoninic acid kit (Sigma-Aldrich), separated by SDS–PAGE and transferred onto nitrocellulose membranes (GE Healthcare). Membranes were incubated with specific primary antibodies and horseradish peroxidase-conjugated secondary antibodies. […] Protein bands were detected using a chemiluminescent substrate (SuperSignal West Pico PLUS; Thermo Fisher Scientific) and visualized using a Fuji LAS-3000 system (Fujifilm).
Fig. 2 ETI41 and ETI60 inhibit TLR7- and TLR9-dependent downstream signaling. a, b Western blot analysis was used to quantify the protein levels of phosphorylated p-ERK, p-JNK, p38, Iκ-Bα and p65. […] Statistical differences between the induced and other cases were analyzed and verified using a one-tailed Student’s t-test (*P < 0.05, **P < 0.01, ***P < 0.001). e–g The TLR7 agonist IMQ (1 μM) was used in 3’ RNA-seq analysis to induce signaling associated with immune responses in RAW 264.7 cells. […]

T1 sequence (Q9NR96 26-1032): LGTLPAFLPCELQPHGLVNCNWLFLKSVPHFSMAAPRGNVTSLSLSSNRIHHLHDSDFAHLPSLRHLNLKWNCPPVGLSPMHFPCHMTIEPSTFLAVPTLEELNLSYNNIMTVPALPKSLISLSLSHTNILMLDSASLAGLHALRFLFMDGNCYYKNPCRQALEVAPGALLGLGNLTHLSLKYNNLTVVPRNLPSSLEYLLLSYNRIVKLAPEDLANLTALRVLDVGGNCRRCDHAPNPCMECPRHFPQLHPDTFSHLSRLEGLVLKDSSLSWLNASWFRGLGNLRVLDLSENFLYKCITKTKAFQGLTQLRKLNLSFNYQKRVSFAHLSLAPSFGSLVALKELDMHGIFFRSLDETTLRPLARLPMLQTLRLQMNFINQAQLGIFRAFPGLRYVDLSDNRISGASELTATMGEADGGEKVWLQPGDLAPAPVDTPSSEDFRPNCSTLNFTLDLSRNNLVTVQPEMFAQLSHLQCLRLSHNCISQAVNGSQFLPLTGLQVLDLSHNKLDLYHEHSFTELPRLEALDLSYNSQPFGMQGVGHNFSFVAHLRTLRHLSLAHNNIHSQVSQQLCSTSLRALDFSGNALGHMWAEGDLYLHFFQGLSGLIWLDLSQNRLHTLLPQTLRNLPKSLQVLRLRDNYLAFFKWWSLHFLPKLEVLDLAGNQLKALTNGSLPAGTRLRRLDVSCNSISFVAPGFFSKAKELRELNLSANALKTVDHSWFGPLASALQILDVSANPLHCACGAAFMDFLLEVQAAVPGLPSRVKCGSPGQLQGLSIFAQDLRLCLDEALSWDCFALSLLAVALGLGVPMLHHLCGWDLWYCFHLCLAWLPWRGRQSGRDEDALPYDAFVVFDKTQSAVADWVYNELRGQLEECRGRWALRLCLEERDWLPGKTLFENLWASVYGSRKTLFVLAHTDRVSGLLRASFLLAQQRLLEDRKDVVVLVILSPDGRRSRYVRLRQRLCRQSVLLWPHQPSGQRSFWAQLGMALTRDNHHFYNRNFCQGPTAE

SMILES	IC50 (hTLR9)	IMQ- or ODN2395-induced phosphorylation of MAPKs (p-ERK, p-JNK, p-p38), nuclear translocation of NF-κB p65, Iκ-Bα degradation and IRF7 expression [1]
Cc1cc2c(N)c3c(nc2n1CCCN(C)C)CCCCCC3 [ETI41]	80.1 nM	inhibited
COc1ccc2c3c(N)c4c(nc3n(CCCN(C)C)c2c1)CCCC4 [ETI60]	20.9 nM	inhibited
